From PMC5359770 (ACS chemical biology, 2016)
Values belong to the molecule of their own block, whether it stands above or below them.

Tests used:
[1] = biological target: APT2 (Homo sapiens, UniProt O95372); format: binding
[2] = cited from earlier work
[3] = biological target: APT2 triple mutant L78I/A85S/P86Q (Homo sapiens, UniProt O95372, A85S/L78I/P86Q); format: biochemical
[4] = biological target: APT2-L78I (Homo sapiens, UniProt O95372, L78I); conditions: ResOAc substrate
Chain of APT2-L78I (O95372 whole entry L78I): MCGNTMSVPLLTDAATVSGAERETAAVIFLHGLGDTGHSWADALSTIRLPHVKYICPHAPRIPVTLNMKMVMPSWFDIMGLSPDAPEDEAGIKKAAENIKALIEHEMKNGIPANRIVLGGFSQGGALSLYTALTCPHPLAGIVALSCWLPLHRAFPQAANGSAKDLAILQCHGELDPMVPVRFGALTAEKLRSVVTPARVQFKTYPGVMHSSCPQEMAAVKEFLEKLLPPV

Chain of APT2 (O95372 whole entry): as the sequence (O95372 whole entry L78I) above, with I78L counted along it
Chain of APT2 triple mutant L78I/A85S/P86Q (O95372 whole entry L78I/A85S/P86Q): as the sequence (O95372 whole entry L78I) above, with A85S, P86Q counted along it

Molecule: CCCCCCCC/C=C\CCCCCCCC(=O)OC[C@@H](O)COP(=O)([O-])OCC[N+](C)(C)C [1-oleoyl-2-hydroxy-sn-glycero-3-phosphocholine]
IC50 [1]: 4.3 ± 0.4 µM

Molecule: COc1ccc(N2CCN(C(=O)c3cc4c(s3)-c3ccccc3[S+]([O-])C4)CC2)cc1 (stereo not drawn) [ML349-sulfoxide]
binding / inhibition of APT2 (in words) [1]: some residual inhibition

IC50 [1]: 9.9 ± 0.6 µM
Molecule: CCCCCCCC/C=C\CCCCCCCC(=O)O [oleic acid]
critical micelle concentration (CMC) [2]: 6 µM

potency (in words) [3]: improved ML348 potency
Ki [4]: 5.8 µM
Molecule: ML348
